Experimental findings from patent US20120214862A1, “MODULATION OF FACTOR 7 EXPRESSION” (ISIS Pharmaceuticals, Inc., priority 2009, published 2012) are described below.

In the oligonucleotide strings, read from the 5' end, every base follows the letter of its sugar. An asterisk marks phosphorothioate; unmarked linkages are phosphodiester. Other units and linkages are bracketed, terminal groups are in braces. A string of capitals states the bases alone. e = 2'-O-(2-methoxyethyl) (MOE); [5mC] = 5-methylcytosine; d = 2'-deoxy (DNA)

Holding throughout (type): cell-based
Data set [1] deals with human Factor 7 mRNA. In words: Antisense inhibition of human Factor 7 mRNA in HepB3 cells, lipofectin, 50 nM, real-time RT-PCR. The conditions noted are these: HepB3 cells. A digest of the protocol:
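Cells plated at 4,000 per well were transfected and harvested after approximately 24 hours of treatment. Transcript levels, measured with primer probe set RTS 2927, were normalised to total RNA by RIBOGREEN®. Values are percent inhibition relative to untreated control cells.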
A general note: Real-time PCR tracks product formation cycle by cycle.

Data set [2] has as its system human Factor 7 mRNA. In words: Dose-dependent antisense inhibition of human Factor 7 in HepB3 cells, transfection with lipofectin. Particulars: lipofectin, HepB3 cells, 16 hours. A digest of the protocol: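 HepB3 cells (4,000/well) lipofectin-transfected with antisense oligonucleotide at 3.125 or 6.25 up to 100 nM for ~16 h. Factor 7 mRNA measured by real-time RT-PCR with primer probe set RTS 2927, adjusted to RIBOGREEN total RNA; expressed as percent inhibition versus untreated control cells.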

The subject of data set [3] is human Factor 7 mRNA. In words: Dose-dependent antisense inhibition of human Factor 7 in HepB3 cells, transfection with electroporation. The method, then:
(§1) The gapmers were also transfected via electroporation and their dose-dependent inhibition of human Factor 7 mRNA was measured. Cells were plated at a density of 20,000 cells per well and transfected via electroporation with 3.125 μM, 6.25 μM, 12.5 μM, 25 μM, 50 μM, and 100 μM concentrations of antisense oligonucleotide, as specified in Table 15. After a treatment period of approximately 16 hours, RNA was isolated from the cells and Factor 7 mRNA levels were measured by quantitative real-time PCR. Human Factor 7 primer probe set RTS 2927 was used to measure mRNA levels. Factor 7 mRNA levels were adjusted according to total RNA content, as measured by RIBOGREEN®. Results are presented as percent inhibition of Factor 7, relative to untreated control cells.
as §1, with “Cells were” for “The gapmers were also transfected via electroporation and their dose-dependent inhibition of human Factor 7 mRNA was measured. Cells were”, “in Table 16. After a” for “in Table 15. After a”, “cells and human Factor 7” for “cells and Factor 7”

Data set [4] relates to human Factor 7 mRNA. In words: Inhibition of human Factor 7 mRNA by 2-10-2 MOE shortmers in HepB3 cells, electroporation, 1,000 nM. Particulars: electroporation, 1,000 nM oligonucleotide, approximately 24 hours, relative to untreated control cells. A digest of the protocol:
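14-mer 2-10-2 2′-MOE gapmers, full phosphorothioate, 5-methylcytidines, electroporated at 1,000 nM into HepB3 cells (20,000/well). After ~24 h, mRNA quantified by real-time RT-PCR, normalized to RIBOGREEN total RNA; percent inhibition relative to untreated cells.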

Setting [5] is: gapmers (5-10-5, 3-14-3, 2-13-5 MOE) targeted to nucleobases 4868 to 4899 of SEQ ID NO: 1.
Where [6] appears, read: 3.125 μM, 16 hours (Example 7, Table 15).
The mark [7] stands for this setting: 3.125 μM, 16 hours (Example 8, Table 16).
Setting [8] is: 6.25 μM, 16 hours (Example 7, Table 15).
The mark [9] stands for this setting: 6.25 μM, 16 hours (Example 8, Table 16).
The mark [10] stands for this setting: 12.5 μM, 16 hours (Example 7, Table 15).
Setting [11] is: 12.5 μM, 16 hours (Example 8, Table 16).
Where [12] appears, read: 25 μM, 16 hours (Example 7, Table 15).
Where [13] appears, read: 25 μM, 16 hours (Example 8, Table 16).
Where [14] appears, read: 50 μM, 16 hours (Example 7, Table 15).
Where [15] appears, read: 50 μM, 16 hours (Example 8, Table 16).
Setting [16] is: 100 μM, 16 hours (Example 7, Table 15).
[17] abbreviates: 100 μM, 16 hours (Example 8, Table 16).

On to “422292 (antisense eG*eT*dT*d[5mC]*dT*dG*d[5mC]*dA*dG*dG*dA*dG*d[5mC]*dG*dG*e[5mC]*e[5mC]*eT*eA*eA) [compound 422292]”, for which the “% Inhibition of human Factor 7 mRNA levels” value in data set [1] (setting [5]) is 75%. Further, the “percent inhibition of Factor 7 mRNA, relative to untreated control cells” value in data set [2] (3.125 nM) is 13%; in data set [2] (12.5 nM), 44%; in data set [2] (25 nM), 63%; in data set [2] (50 nM) it was 81%; in data set [2] (100 nM), 83%; in data set [2], 21%. Besides, the “percent inhibition of Factor 7 mRNA, relative to untreated control cells” value was 36% in data set [3] (setting [6]); 31% in data set [3] (setting [7]); 25% in data set [3] (setting [8]); 40% in data set [3] (setting [9]); 47% in data set [3] (setting [10]); 68% in data set [3] (setting [11]). Moreover, the “percent inhibition of Factor 7 mRNA, relative to untreated control cells” value is 59% in data set [3] (setting [12]); 75% in data set [3] (setting [13]); 75% in data set [3] (setting [14]); 82% in data set [3] (setting [15]); 86% in data set [3] (setting [16]); 83% in data set [3] (setting [17]).

For the substance “422086 (antisense eT*eG*e[5mC]*eA*eT*dG*dG*dT*dG*dA*dT*dG*d[5mC]*dT*dT*e[5mC]*eT*eG*eA*eA) [compound 422086]”, the “% Inhibition of human Factor 7 mRNA levels” value in data set [1] (gapmers targeted to nucleobases 15188 to 15211 of SEQ ID NO: 1 (Table 13)) stood at 81%. Also, the “percent inhibition of Factor 7 mRNA, relative to untreated control cells” value in data set [2] (3.125 nM) is recorded as 8%; in data set [2] (12.5 nM), 46%; in data set [2] (25 nM) it was 65%; in data set [2] (50 nM) it was 83%; in data set [2] (100 nM) it was 90%; in data set [2] it was 26%. The “percent inhibition of Factor 7 mRNA, relative to untreated control cells” value in data set [3] (setting [6]) was 20%; in data set [3] (setting [7]), 25%; in data set [3] (setting [8]) it was 34%; in data set [3] (setting [9]), 48%; in data set [3] (setting [10]), 44%; in data set [3] (setting [11]), 74%. Further, the “percent inhibition of Factor 7 mRNA, relative to untreated control cells” value is given as 63% in data set [3] (setting [12]); 82% in data set [3] (setting [13]); 75% in data set [3] (setting [14]); 86% in data set [3] (setting [15]); 84% in data set [3] (setting [16]); 90% in data set [3] (setting [17]).

“422296 (antisense e[5mC]*e[5mC]*dG*dA*dG*dT*dT*d[5mC]*dT*dG*d[5mC]*dA*dG*dG*dA*eG*e[5mC]*eG*eG*e[5mC]) [compound 422296]”: the “% Inhibition of human Factor 7 mRNA levels” value in data set [1] (setting [5]) is 74%. The “percent inhibition of Factor 7 mRNA, relative to untreated control cells” value in data set [2] (3.125 nM) was determined as 21%; in data set [2] (12.5 nM) it was 39%; in data set [2] (25 nM), 67%; in data set [2] (50 nM) it was 78%; in data set [2] (100 nM) it was 82%; in data set [2] it was 27%. The “percent inhibition of Factor 7 mRNA, relative to untreated control cells” value worked out at 62% in data set [3] (setting [6]); 47% in data set [3] (setting [7]); 40% in data set [3] (setting [8]); 44% in data set [3] (setting [9]); 56% in data set [3] (setting [10]); 70% in data set [3] (setting [11]). Further, the “percent inhibition of Factor 7 mRNA, relative to untreated control cells” value worked out at 56% in data set [3] (setting [12]); 78% in data set [3] (setting [13]); 82% in data set [3] (setting [14]); 80% in data set [3] (setting [15]); 84% in data set [3] (setting [16]); 82% in data set [3] (setting [17]).

As for “422295 (antisense e[5mC]*eG*dA*dG*dT*dT*d[5mC]*dT*dG*d[5mC]*dA*dG*dG*dA*dG*e[5mC]*eG*eG*e[5mC]*e[5mC]) [compound 422295]”, the “% Inhibition of human Factor 7 mRNA levels” value in data set [1] (setting [5]) was 74%. Besides, the “percent inhibition of Factor 7 mRNA, relative to untreated control cells” value in data set [2] (3.125 nM) stood at 17%; in data set [2] (12.5 nM) it was 44%; in data set [2] (25 nM), 64%; in data set [2] (50 nM), 80%; in data set [2] (100 nM), 85%; in data set [2], 22%. Moreover, the “percent inhibition of Factor 7 mRNA, relative to untreated control cells” value in data set [3] (setting [6]) is reported as 10%; in data set [3] (setting [8]), 8%; in data set [3] (setting [10]), 37%; in data set [3] (setting [12]), 58%; in data set [3] (setting [14]), 68%; in data set [3] (setting [16]), 80%.

On to “435672 (antisense eA*e[5mC]*d[5mC]*d[5mC]*dA*dG*dA*dT*dG*dG*dT*dG*eT*eT) [compound 435672]”, for which the “% inhibition of human Factor 7 mRNA” value in data set [4] is on record as 12%.

For “435718 (antisense eG*e[5mC]*dT*d[5mC]*dG*d[5mC]*dA*dG*dG*dA*dG*dG*eA*e[5mC]) [compound 435718]”, in data set [4], the “% inhibition of human Factor 7 mRNA” value was 26%.

Consider “435496 (antisense eG*eG*dA*dG*dA*d[5mC]*d[5mC]*d[5mC]*dT*dG*dG*dT*eG*eT) [compound 435496]”, for which, in data set [4], the “% inhibition of human Factor 7 mRNA” value was determined as 47%.

Consider “435738 (antisense e[5mC]*eA*dG*dA*dG*dG*dA*dT*dG*dA*dG*d[5mC]*eA*e[5mC]) [compound 435738]”, for which, in data set [4], the “% inhibition of human Factor 7 mRNA” value is reported as 16%.

Turning to “435698 (antisense e[5mC]*e[5mC]*dT*dT*dG*d[5mC]*dA*dG*dG*dA*dG*dT*e[5mC]*e[5mC]) [compound 435698]”, the “% inhibition of human Factor 7 mRNA” value in data set [4] was 61%.

For “435484 (antisense e[5mC]*e[5mC]*dT*dG*dG*dG*dT*d[5mC]*dA*dT*d[5mC]*dA*eG*e[5mC]) [compound 435484]”, in data set [4], the “% inhibition of human Factor 7 mRNA” value is 45%.

With “435820 (antisense e[5mC]*eA*dT*d[5mC]*d[5mC]*dT*dA*dG*dT*d[5mC]*dA*d[5mC]*eT*eG) [compound 435820]”, in data set [4], the “% inhibition of human Factor 7 mRNA” value turned out to be 19%.

In the case of “435495 (antisense eG*eA*dG*dA*d[5mC]*d[5mC]*d[5mC]*dT*dG*dG*dT*dG*eT*eA) [compound 435495]”, the “% inhibition of human Factor 7 mRNA” value in data set [4] is given as 27%.
